According to patent publication US20170269060A1, “Assays and Compounds to Treat Kidney Diseases” (Rush University Medical Center, priority 2014, published 2017):

What was measured:
[1] = biological target: T1, human β1 integrin (Homo sapiens, UniProt P05556); assay: Active β1 integrin (antibody 12G10) in PAN-treated human podocytes; format: cell-based; conditions: PAN treatment (FIG. 9D)
T1 construct: endogenous in cells; host or cells: conditionally immortalized human podocytes (Saleem et al. 2002)
Description: FIG. 9A-9E. An An β1-integrin agonist pyrintegrin (pyr) protects podocytes from damage. (A) The published chemical structure of pyr. (Xu et al. PNAS, 2010.) (B-D) Pyr protects podocytes from PAN-induced loss of F-actin fibers and focal adhesions and enhances active β1-integrin levels. (B) Graphs showing the effect of pyr on the number of F-actin fibers per cell and the number of vinculin spots per cell under each treatment condition. Data shown are means 6 SEMs per cell from three replicate wells (n=500-1000 cells per well). **P, 0.01; ***P, 0.001; ****P, 0.001. (C) Representative fluorescence images of murine podocytes after various treatments and after staining with phalloidin and antiactive β1 antibody. […] (D) Representative fluorescence images of human podocytes after various treatments as shown. […] Representative images (left panel) and a bar graph (right panel) showing confocal microscopy-based quantitation of the number of migrating podocytes in a scratch wound-healing assay Lines represent the wound margins at the beginning of the experiment (0 hours). […]
Integrin-α3β1 is highly expressed in podocytes and primarily binds to the GBM-expressed ligand laminin, thereby mediating stable adhesion of podocytes to the GBM. […] Given that pyrintegrin affects integrin-β1, (Xu et al., PNAS, 2010.) we quantified the level of β1 in treated cells. […]

[2] = biological target: T2, β1 integrin (Mus musculus, UniProt P09055); assay: β1 integrin and active β1 integrin levels (antibody 9EG7) in PAN-treated murine podocytes; format: cell-based
T2 construct: we quantified the level of β1 in treated cells; endogenous in cells; host or cells: conditionally immortalized murine podocytes (from mouse line H-2Kb-tsA58)
Description: FIG. 9A-9E. An An β1-integrin agonist pyrintegrin (pyr) protects podocytes from damage. (A) The published chemical structure of pyr. (Xu et al. PNAS, 2010.) (B-D) Pyr protects podocytes from PAN-induced loss of F-actin fibers and focal adhesions and enhances active β1-integrin levels. (B) Graphs showing the effect of pyr on the number of F-actin fibers per cell and the number of vinculin spots per cell under each treatment condition. Data shown are means 6 SEMs per cell from three replicate wells (n=500-1000 cells per well). **P, 0.01; ***P, 0.001; ****P, 0.001. (C) Representative fluorescence images of murine podocytes after various treatments and after staining with phalloidin and antiactive β1 antibody. Two-color costained images show cells stained with phalloidin (red) and anti-active β1 antibody 9EG7 (green). Images were acquired using the Opera HCS System. […] Data shown are means±SEMs per cell from four to five replicate wells (n=500-1000 cells per well). Scale bar, 50 μm. *P, 0.01; **P, 0.001. (D) Representative fluorescence images of human podocytes after various treatments as shown. Images show cells stained with phalloidin (red) and anti-active β1-integrin antibody 12G10 (green). Images were acquired using the Opera HCS System. […] Data shown are medians±SEMs per cell from four to five replicate wells (n=500-1000 cells per well). Scale bar, 50 μm. **P, 0.01; ***P, 0.001. (E) Pyr reduces injury-mediated increase in podocyte migration in a scratch wound-healing assay. Representative images (left panel) and a bar graph (right panel) showing confocal microscopy-based quantitation of the number of migrating podocytes in a scratch wound-healing assay Lines represent the wound margins at the beginning of the experiment (0 hours). The data presented in the graph are plotted as means±SEMs (n≧15). C, control. Scale bar, 50 μm. **P<0.01; ****P<0.001.
FIG. 16. […] The cellular damage was assessed after staining the cells with phalloidin, anti-paxillin and anti-integrin β1 antibodies and quantifying various cellular phenotypes using the HCS system. […]

[3] = system: SD rats; assay: PAN-induced nephropathy in rats; format: in vivo, rat; conditions: PAN 150 mg/kg i.v., pyrintegrin 10 mg/kg daily for 14 days
Experimental: The induction of nephropathy in male wild type SD rats (n=6 per group) by PAN injection was performed as described. (Reiser et al., J Clin Invest, 2004; Wei et al., Nature Medicine, 2008; Nakamura et al., Lab Invest, 1991.) Briefly, 5 week old male rats were intravenously injected with PAN (150 mg/kg, in water) and treatment with vehicle or pyrintegrin was started on the same day. Animals in the vehicle group were administered saline-based vehicle solution (3.3% DMSO and 5% Cremaphor EL) intraperitoneally daily for 14 days. Animals in the treatment group were treated with pyrintegrin (10 mg/kg, 3.3% DMSO and 5% Cremaphor EL) in the saline based solution daily for 14 days. Spot urine was collected from animals for measurement of albuminuria as mg albumin per mg creatinine. (Faul et al., Nat Med, 2008) Results are expressed as mean±SEM.
Low-dose LPS decreases β1 integrin activation in podocytes and causes podocyte damage and proteinuria in mice. (Yu et al., N Engl J Med, 2013) Here, we used this model to test whether pyrintegrin, by preserving active β1 integrin in podocytes, is able to suppress podocyte FP effacement and the development of proteinuria in live animals. […] Given that pyrintegrin protected podocytes from PAN-induced damage in vitro, we also tested the efficacy of pyrintegrin in a PAN injury model.

T2 sequence (P09055 21-798): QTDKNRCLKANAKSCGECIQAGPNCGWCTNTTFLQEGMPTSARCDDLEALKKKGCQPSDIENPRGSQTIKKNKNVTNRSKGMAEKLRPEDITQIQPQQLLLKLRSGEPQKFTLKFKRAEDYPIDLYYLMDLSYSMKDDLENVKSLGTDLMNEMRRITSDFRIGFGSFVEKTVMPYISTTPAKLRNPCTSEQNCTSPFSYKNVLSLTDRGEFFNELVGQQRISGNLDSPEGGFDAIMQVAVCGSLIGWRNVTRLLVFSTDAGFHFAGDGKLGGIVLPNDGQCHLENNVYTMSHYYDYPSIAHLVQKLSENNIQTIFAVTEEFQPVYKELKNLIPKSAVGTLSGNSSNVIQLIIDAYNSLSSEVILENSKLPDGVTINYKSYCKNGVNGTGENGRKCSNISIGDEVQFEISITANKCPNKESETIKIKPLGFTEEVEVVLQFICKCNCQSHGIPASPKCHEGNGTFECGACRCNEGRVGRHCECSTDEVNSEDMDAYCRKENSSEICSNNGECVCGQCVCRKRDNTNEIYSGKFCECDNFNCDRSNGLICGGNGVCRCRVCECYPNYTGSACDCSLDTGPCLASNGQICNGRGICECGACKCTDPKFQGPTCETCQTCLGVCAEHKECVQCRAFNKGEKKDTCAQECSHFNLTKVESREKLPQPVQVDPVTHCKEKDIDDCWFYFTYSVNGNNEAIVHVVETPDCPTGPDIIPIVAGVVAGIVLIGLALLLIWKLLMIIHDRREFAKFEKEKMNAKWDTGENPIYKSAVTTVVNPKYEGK
T2 sequence (Q62470 33-1053 partner): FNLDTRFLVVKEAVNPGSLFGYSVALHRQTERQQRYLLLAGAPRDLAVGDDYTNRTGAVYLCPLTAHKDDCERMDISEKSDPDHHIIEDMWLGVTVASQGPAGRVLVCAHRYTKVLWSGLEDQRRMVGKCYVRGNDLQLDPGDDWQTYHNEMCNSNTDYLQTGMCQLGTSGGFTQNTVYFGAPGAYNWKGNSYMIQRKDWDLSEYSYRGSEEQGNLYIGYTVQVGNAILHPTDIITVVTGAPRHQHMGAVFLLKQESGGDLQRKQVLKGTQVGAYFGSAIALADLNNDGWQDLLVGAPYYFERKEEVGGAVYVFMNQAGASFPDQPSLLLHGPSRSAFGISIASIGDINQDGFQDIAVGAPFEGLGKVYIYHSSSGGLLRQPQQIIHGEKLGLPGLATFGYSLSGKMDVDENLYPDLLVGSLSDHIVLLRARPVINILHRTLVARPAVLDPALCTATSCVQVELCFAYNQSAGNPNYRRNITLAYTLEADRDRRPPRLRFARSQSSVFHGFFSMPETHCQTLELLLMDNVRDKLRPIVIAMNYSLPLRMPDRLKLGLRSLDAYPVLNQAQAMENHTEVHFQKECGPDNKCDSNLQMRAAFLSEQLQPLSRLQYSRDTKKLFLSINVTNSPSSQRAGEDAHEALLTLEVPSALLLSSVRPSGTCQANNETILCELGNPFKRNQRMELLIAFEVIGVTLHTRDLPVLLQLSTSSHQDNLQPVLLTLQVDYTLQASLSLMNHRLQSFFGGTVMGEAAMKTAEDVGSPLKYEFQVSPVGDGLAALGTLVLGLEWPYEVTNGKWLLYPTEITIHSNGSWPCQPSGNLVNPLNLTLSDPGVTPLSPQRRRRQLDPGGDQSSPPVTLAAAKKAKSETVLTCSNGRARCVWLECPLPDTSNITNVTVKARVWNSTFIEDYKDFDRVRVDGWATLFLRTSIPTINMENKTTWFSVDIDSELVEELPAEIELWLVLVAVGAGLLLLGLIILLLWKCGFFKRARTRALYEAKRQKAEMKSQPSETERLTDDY
T1 sequence (P05556 21-798): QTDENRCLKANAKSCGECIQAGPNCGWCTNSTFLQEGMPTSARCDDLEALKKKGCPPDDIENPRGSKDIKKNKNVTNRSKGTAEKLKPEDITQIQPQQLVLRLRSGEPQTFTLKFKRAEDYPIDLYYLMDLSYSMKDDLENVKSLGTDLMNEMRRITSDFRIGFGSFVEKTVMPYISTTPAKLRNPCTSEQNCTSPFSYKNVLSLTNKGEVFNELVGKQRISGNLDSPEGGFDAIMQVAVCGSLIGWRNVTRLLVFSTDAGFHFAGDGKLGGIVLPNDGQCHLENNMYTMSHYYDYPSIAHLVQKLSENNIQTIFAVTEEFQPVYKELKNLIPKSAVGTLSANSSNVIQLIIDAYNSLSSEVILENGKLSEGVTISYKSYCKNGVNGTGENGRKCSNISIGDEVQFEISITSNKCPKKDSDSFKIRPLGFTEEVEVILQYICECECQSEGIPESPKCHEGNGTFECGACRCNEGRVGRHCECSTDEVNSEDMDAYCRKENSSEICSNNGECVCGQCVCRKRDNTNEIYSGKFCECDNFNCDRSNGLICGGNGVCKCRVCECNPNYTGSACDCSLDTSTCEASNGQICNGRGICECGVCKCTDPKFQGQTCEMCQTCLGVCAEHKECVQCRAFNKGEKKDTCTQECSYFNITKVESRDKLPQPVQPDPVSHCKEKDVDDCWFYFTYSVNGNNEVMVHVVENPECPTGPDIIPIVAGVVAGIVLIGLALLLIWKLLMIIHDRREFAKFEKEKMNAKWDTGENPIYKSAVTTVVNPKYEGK
T1 sequence (P26006 33-1051 partner): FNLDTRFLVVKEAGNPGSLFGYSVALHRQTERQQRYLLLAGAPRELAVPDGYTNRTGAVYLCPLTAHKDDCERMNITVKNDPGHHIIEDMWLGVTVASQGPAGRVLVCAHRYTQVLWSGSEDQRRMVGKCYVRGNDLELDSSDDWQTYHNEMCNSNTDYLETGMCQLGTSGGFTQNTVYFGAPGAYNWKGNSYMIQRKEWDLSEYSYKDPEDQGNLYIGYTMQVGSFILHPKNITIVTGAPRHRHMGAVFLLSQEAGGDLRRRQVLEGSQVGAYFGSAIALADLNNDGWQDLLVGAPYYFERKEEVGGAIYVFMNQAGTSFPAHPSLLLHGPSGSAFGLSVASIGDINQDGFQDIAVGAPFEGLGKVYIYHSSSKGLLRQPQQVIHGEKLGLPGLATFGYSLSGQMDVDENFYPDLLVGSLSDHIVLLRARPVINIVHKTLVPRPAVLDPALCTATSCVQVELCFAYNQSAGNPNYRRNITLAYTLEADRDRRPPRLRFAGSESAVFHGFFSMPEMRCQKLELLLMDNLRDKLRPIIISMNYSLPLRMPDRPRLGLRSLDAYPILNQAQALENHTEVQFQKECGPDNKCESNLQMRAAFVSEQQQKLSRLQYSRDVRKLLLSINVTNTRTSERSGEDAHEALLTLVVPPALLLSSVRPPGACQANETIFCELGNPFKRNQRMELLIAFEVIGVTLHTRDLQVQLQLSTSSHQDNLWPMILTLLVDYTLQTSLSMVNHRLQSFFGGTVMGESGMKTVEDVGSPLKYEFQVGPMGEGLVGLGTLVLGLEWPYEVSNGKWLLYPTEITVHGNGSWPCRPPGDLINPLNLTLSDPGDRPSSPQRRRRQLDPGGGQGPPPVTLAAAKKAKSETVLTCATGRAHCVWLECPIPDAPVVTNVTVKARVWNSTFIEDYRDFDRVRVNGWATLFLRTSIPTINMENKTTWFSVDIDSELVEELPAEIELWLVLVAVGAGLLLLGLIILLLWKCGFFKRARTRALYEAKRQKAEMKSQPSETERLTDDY

level of active β1 integrin in human podocytes (antibody 12G10) [1]: rescued | β1 levels in podocytes ([2]; PAN 30 μg/mL, pyr 1 μM cotreatment, 48 h (FIG. 16)): preserved | active β1 levels in healthy cells ([2]; healthy cells, no PAN): significant increase in active β1 levels
Structure (SMILES): O=S(=O)(NCC1CC1)c1ccc(Nc2nccc(N3CCCc4cc(O)ccc43)n2)cc1 [Pyrintegrin]
active β1 levels in podocytes (antibody 9EG7) ([2]; PAN cotreatment): significant loss of active β1 levels in podocytes but not on treatment with pyrintegrin | albuminuria caused by PAN-induced nephropathy [3]: significantly reduced albuminuria
